Where two headings read alike, the source gives them in different places.
How the values were obtained:
GSK-3β = biological target: T1, GSK-3β (Homo sapiens, UniProt P49841); test: GSK-3β inhibition (radiometric, GS 1 peptide); assay type: biochemical
T1 construct: purchased Sigma
Method: GSK-3β inhibition: The GSK-3 activity was determined by incubation of a mixture of GSK-3 enzyme (Sigma), a phosphate source and a GSK-3 substrate in the presence and in the absence of the corresponding test compound, and by measuring the GSK-3 activity of this mixture.
The reaction is quenched by addition of an aliquot of the reaction mixture in phosphocelullose p81 papers. These papers are washed three times with phosphoric acid 1% and the radioactivity incorporated to the GS 1 peptide is measured in a liquid scintillation counter.

N2A cells = test: Cell cycle blockade; assay type: cell-based, mice; settings: N2A cell cultures, Table 5
Method: In parallel, the potential interference of these compounds with the cell cycle was studied on N2A cells. The cell culture was maintained in a Dulbecco medium (DEMEM) with a 10% fethal bovine serum, glutamine (2 mM) and antibiotics.
The first four compounds of general formula (I) gathered in Table 3 were assayed in the described conditions and shown ability to inhibit the cell cycle at an inhibitor concentration comprised between 100 nM and 1 μM. The cellular blockade was initially observed at concentrations comprised between 100-200 nM and was totally effective at 1 μM.

[1] = GSK-3 enzyme (Sigma), 15 μM ATP, GS 1 peptide, Tables 3, 3a, 4, read-out: IC50
[2] = Tables 4a, 4b, read-out: GSK-3β IC50

T1 sequence (P49841 whole entry, species assumed): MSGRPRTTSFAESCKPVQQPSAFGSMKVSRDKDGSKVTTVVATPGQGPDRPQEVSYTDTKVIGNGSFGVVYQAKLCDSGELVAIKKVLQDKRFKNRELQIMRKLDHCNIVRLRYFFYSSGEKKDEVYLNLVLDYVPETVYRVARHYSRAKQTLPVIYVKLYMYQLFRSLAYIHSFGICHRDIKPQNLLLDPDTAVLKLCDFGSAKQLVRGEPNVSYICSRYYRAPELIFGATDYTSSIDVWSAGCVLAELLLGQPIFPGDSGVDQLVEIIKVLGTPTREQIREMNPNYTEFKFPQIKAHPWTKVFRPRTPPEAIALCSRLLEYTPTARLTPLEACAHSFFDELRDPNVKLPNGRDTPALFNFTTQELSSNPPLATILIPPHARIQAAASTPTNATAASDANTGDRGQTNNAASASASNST

IC50 (GSK-3β; [1]) [µM]	Compound	further results
10	O=c1sn(Cc2ccccc2)c(=S)n1Cc1ccccc1 [Compound 11, 2,4-Dibenzyl-5-oxo-thiadiazolidine-3-thione]	IC50 (N2A cells): 1 to 2 µM
8.5	CCn1sc(=O)n(-c2ccc([N+](=O)[O-])cc2)c1=O [Compound 49, 2-Ethyl-4-(4-nitrophenyl)-1,2,4-thiadiazolidine-3,5-dione]	–
7	CCn1sc(=O)n(Cc2ccccc2)c1=O [Compound 8, 4-Benzyl-2-ethyl-1,2,4-thiadiazolidine-3,5-dione]	IC50 (N2A cells; Mus musculus): 4 to 7 µM
10	CCCn1sc(=O)n(CC)c1=O [Compound 3, 4-Ethyl-2-n-propyl-1,2,4-thiadiazolidine-3,5-dione]	IC50 (N2A cells; Mus musculus): 5 to 10 µM
2	Cn1sc(=O)n(-c2ccccc2)c1=O [Compound 5, 4-Phenyl-2-methyl-1,2,4-thiadiazolidin-3,5-dione]	IC50 (N2A cells; Mus musculus): 4 to 7 µM
> 100	Cn1c(=O)n(-c2ccccc2)c(=O)n1C [Compound 2-H]	–
50	O=C(CN1C(=O)CSC1=S)c1ccccc1 [Compound 6-G, 3-Phenacyl-2-thioxo-thiazolidin-4-One]	–
5	CCn1c(=O)sn(C)c1=O [Compound 2, 4-Ethyl-2-methyl-1,2,4-thiadiazolidine-3,5-dione]	IC50 (N2A cells; Mus musculus): 40 to 100 µM
35	CCn1c(=O)sn(C(C)C)c1=O [Compound 9, 4-Ethyl-2-isopropyl-1,2,4-thiadiazolidin-3,5-dione]	–
3	Cn1sc(=O)n(-c2ccc(Br)cc2)c1=O [Compound 16, 4-(4-Bromophenyl)-2-methyl-1,2,4-thiadiazolidine-3,5-dione]	–
> 100	O=C1NC(=O)c2ccccc21 [Compound 1-F]	–
12	O=C1C=CC(=O)C1 [Compound 1-B]	–
> 100	O=C1c2ccccc2C(=O)N1Cc1ccccc1 [Compound 2-F]	–
> 100	O=C1CCC(=O)N1Cc1ccccc1 [Compound 2-E]	–

Further lines, the compound ahead of its results:

Compound	IC50 (GSK-3β; [1]) [µM]	further results
4-Ethyl-5-[imino-(1-methyl-piperidin-3-yl)]-2-methyl-1,2,4-thiadiazolidin-3-One [Compound 25]	> 100	–
Cc1ccc(-n2c(=O)sn(C)c2=O)cc1 [Compound 15, 4-(4-Methylphenyl)-2-methyl-1,2,4-thiadiazolidine-3,5-dione]	5	–
CCOC(=O)Cn1c(=O)sn(C)c1=O [Compound 45, 4-(Ethoxycarbonylmethyl)-2-methyl-1,2,4-thiadiazolidine-3,5-dione]	2	–
O=C1CSC(=S)N1CCc1ccccc1 [Compound 5-G, 3-Phenethyl-2-thioxo-thiazolidin-4-One]	35	–
Cn1sc(=O)n(-c2ccc(F)cc2)c1=O [Compound 17, 4-(4-Fluorophenyl)-2-methyl-1,2,4-thiadiazolidine-3,5-dione]	4	–
3-(4-Ethyl-3-oxo-2-methyl-1,2,4-thiadiazolidin-5-ylidine)aminopyridine-1-oxide [Compound 23]	> 100	–
CCOC(=O)Cn1c(=O)sn(C)c1=O [Compound 6, 4-(Ethoxycarbonylmethyl)-2-methyl-1,2,4-thiadiazolidine-3,5-dione]	5	IC50 (N2A cells; Mus musculus): 1 to 2 µM
O=C1C=CC(=O)N1CCc1ccccc1 [Compound 4-D, N-phenethylmaleimide]	–	IC50 (GSK-3β; [2]): 2 µM
Cn1sc(=O)n(-c2ccc(Cl)cc2)c1=O [Compound 18, 4-(4-Chlorophenyl)-2-methyl-1,2,4-thiadiazolidine-3,5-dione]	4	–
O=C(c1ccccc1)n1sc(=O)n(Cc2ccccc2)c1=O [Compound 31, 2-Benzoyl-4-benzyl-1,2,4-thiadiazolidine-3,5-dione]	3	–
COc1ccc(-n2c(=O)sn(C)c2=O)cc1 [Compound 7, 4-(4-Methoxyphenyl)-2-methyl-1,2,4-thiadiazolidine-3,5-dione]	–	IC50 (N2A cells; Mus musculus): 1 to 2 µM
O=C1C=CC(=O)N1CCCc1ccccc1 [Compound 5-D, N-(3-phenylpropyl)maleimide]	–	melting point: 79 to 80 °C
CCn1sc(=O)n(Cc2ccccc2)c1=S [Compound 10, 4-Benzyl-2-ethyl-5-oxo-1,2,4-thiadiazolidine-3-thione]	6	–
O=c1sn(-c2ccccc2)c(=S)n1-c1ccccc1 [Compound 12, 2,4-diphenyl-5-oxo-thiadiazolidine-3-thione]	20	IC50 (N2A cells): 4 to 8 µM
3-[5-(4-Ethyl-2-methyl-3-oxo)imino-1,2,4-thiadiazolidyl]-1-methyl-pyridinium iodide [Compound 24]	> 100	–
Cn1sc(=O)n(Cc2ccccc2)c1=O [Compound 1, 4-Benzyl-2-methyl-1,2,4-thiadiazolidine-3,5-dione]	–	IC50 (N2A cells; Mus musculus): 4 to 8 µM

Compound	IC50 (GSK-3β; [1]) [µM]	further results
CCOC(=O)Cn1sc(=O)n(Cc2ccccc2)c1=O [Compound 33, 4-Benzyl-2-(Ethoxycarbonylmethyl)-1,2,4-thiadiazolidine-3,5-dione]	4	–
O=C1C=CC(=O)N1CCCCCc1ccccc1 [Compound 6-D, N-(5-phenylpentyl)maleimide]	–	melting point: 49 to 51 °C
CCOC(=O)Cn1sc(=O)n(CC(=O)OCC)c1=O [Compound 44, 4-(Ethoxycarbonylmethyl)-2-(ethoxycarbonylmethyl)-1,2,4-thiadiazolidine-3,5-dione]	4	–
CCn1c(=O)sn(C2CCCCC2)c1=O [Compound 4, 2-Cyclohexyl-4-ethyl-1,2,4-thiadiazolidine-3,5-dione]	10	IC50 (N2A cells; Mus musculus): 6 to 9 µM
COc1ccc(CCN2C(=O)C=CC2=O)cc1 [Compound 8-D, N-(p-Methoxyphenethyl)maleimide]	–	melting point: 79 to 81 °C
O=c1[nH]sc(=O)n1Cc1ccccc1 [Compound 42, 4-Benzyl-1,2,4-thiadiazolidine-3,5-dione]	50	–
NN1C(=O)CSC1=S [Compound 7-G]	–	IC50 (GSK-3β; [2]): > 100 µM
COc1ccc(CN2C(=O)C=CC2=O)cc1 [Compound 7-D, N-(p-methoxybenzyl)maleimide]	–	IC50 (GSK-3β; [2]): 2.5 µM
CCn1sc(=O)n(CCc2ccccc2)c1=O [Compound 41, 2-Ethyl-4-phenethyl-1,2,4-thiadiazolidine-3,5-dione]	8	–
CCn1sc(=NO)n(Cc2ccccc2)c1=O [Compound 36, 4-Benzyl-2-ethyl-1,2,4-thiadiazolidine-3-one-5-oxime]	6	–
CCn1sc(=NO)n(-c2ccccc2)c1=O [Compound 50, 2-Ethyl-4-phenyl-1,2,4-thiadiazolidine-3-one-5-oxime]	100	–
O=C1CCC(=O)C1 [Compound 1-A]	> 100	–
CCOC(=O)Cn1c(=O)sn(C(=O)c2ccccc2)c1=O [Compound 47, 2-Benzoyl-4-(ethoxycarbonylmethyl)-1,2,4-thiadiazolidine-3,5-dione]	4	–
CCOC(=O)Cn1c(=O)sn(C(C)C)c1=O [Compound 46, 4-(Ethoxycarbonylmethyl)-2-isopropyl-1,2,4-thiadiazolidine-3,5-dione]	7	–
CCn1sc(=O)n(CC)c1=O [Compound 13, 2,4-diethyl-5-oxo-1,2,4-thiadiazolidine-3,5-dione]	20	–
O=C(O)CN1C(=O)CSC1=S [Compound 3-G, (4-oxo-2-thioxo-thiazolidin-3-yl)-acetic acid]	> 100	–
